The values below come from US20140221361A1, “C-19 MODIFIED TRITERPENOIDS WITH HIV MATURATION INHIBITORY ACTIVITY” (priority 2013, published 2014).

The assay relates to recombinant NL4-3 virus (Renilla luciferase in nef, Gag P373S). Put plainly: HIV cell culture assay (luciferase reporter, MT-2 cells). In kind it is cell-based, HIV-1. The conditions noted are these: Renilla, NL43, MT-2 cells infected for 4-5 days with NLRluc recombinants; luciferase activity; serial dilutions of inhibitor. Here is the method:
MT-2 cells and 293T cells were obtained from the NIH AIDS Research and Reference Reagent Program. MT-2 cells were propagated in RPMI 1640 media supplemented with 10% heat inactivated fetal bovine serum, […]. The 293T cells were propagated in DMEM media supplemented with 10% heat inactivated fetal bovine serum (FBS), 100 units/ml penicillin G and 100 µg/ml streptomycin. The proviral DNA clone of NL4-3 was obtained from the NIH AIDS Research and Reference Reagent Program. A recombinant NL4-3 virus, in which a section of the nef gene from NL4-3 was replaced with the Renilla luciferase gene, was used as a reference virus. In addition, residue Gag P373 was converted to P373S. Briefly, the recombinant virus was prepared by transfection of the altered proviral clone of NL4-3. Transfections were performed in 293T cells using LipofectAMINE PLUS from Invitrogen (Carlsbad, Calif.), according to manufacturer's instruction. The virus was titered in MT-2 cells using luciferase enzyme activity as a marker. Luciferase was quantitated using the Dual Luciferase kit from Promega (Madison, Wis.), with modifications to the manufacturer's protocol. The diluted Passive Lysis solution was pre-mixed with the re-suspended Luciferase Assay Reagent and the re-suspended Stop & Glo Substrate (2:1:1 ratio). Fifty (50) μL of the mixture was added to each aspirated well on assay plates and luciferase activity was measured immediately on a Wallac TriLux (Perkin-Elmer). Antiviral activities of inhibitors toward the recombinant virus were quantified by measuring luciferase activity in cells infected for 4-5 days with NLRluc recombinants in the presence serial dilutions of the inhibitor.
`C=C(CNCCN(C)C)[C@@H]1CC[C@]2(C(=O)O)CC[C@]3(C)[C@H](CC[C@@H]4[C@@]5(C)CC=C(c6ccc(C(=O)O)cc6)C(C)(C)[C@@H]5CC[C@]43C)[C@@H]12` [Example 5, (1R,3aS,5aR,5bR,7aR,11aS,11bR,13aR,13bS)-9-(4-carboxyphenyl)-1-(3-(2-(dimethylamino)ethylamino)prop-1-en-2-yl)-5a,5b,8,8,11a-pentamethyl-2,3,3a,4,5,5a,5b,6,7,7a,8,11,11a,11b,12,13,13a,13b-octadecahydro-1H-cyclopenta[a]chrysene-3a-carboxylic acid]: the EC50 turned out to be 0.16 µM. The same measure for `C=C(CNCCC(=O)O)[C@@H]1CC[C@]2(C(=O)O)CC[C@]3(C)[C@H](CC[C@@H]4[C@@]5(C)CC=C(c6ccc(C(=O)O)cc6)C(C)(C)[C@@H]5CC[C@]43C)[C@@H]12` [Example 6, (1R,3aS,5aR,5bR,7aR,11aS,11bR,13aR,13bS)-1-(3-(2-carboxyethylamino)prop-1-en-2-yl)-9-(4-carboxyphenyl)-5a,5b,8,8,11a-pentamethyl-2,3,3a,4,5,5a,5b,6,7,7a,8,11,11a,11b,12,13,13a,13b-octadecahydro-1H-cyclopenta[a]chrysene-3a-carboxylic acid]: 4 µM. With `C=C(CN(C)C)[C@@H]1CC[C@]2(C(=O)NCCN(C)C)CC[C@]3(C)[C@H](CC[C@@H]4[C@@]5(C)CC=C(c6ccc(C(=O)O)cc6)C(C)(C)[C@@H]5CC[C@]43C)[C@@H]12` [Example 7, 4-((1R,3aS,5aR,5bR,7aR,11aS,11bR,13aR,13bS)-3a-(2-(dimethylamino)ethylcarbamoyl)-1-(3-(dimethylamino)prop-1-en-2-yl)-5a,5b,8,8,11a-pentamethyl-2,3,3a,4,5,5a,5b,6,7,7a,8,11,11a,11b,12,13,13a,13b-octadecahydro-1H-cyclopenta[a]chrysen-9-yl)benzoic acid] the figure was 0.00054 µM; with `C=C(CN(C)CCN(C)C)[C@@H]1CC[C@]2(C(=O)NCCN(C)C)CC[C@]3(C)[C@H](CC[C@@H]4[C@@]5(C)CC=C(c6ccc(C(=O)O)cc6)C(C)(C)[C@@H]5CC[C@]43C)[C@@H]12` [Example 8, 4-((1R,3aS,5aR,5bR,7aR,11aS,11bR,13aR,13bS)-1-(3-((2-(dimethylamino)ethyl)(methyl)amino)prop-1-en-2-yl)-3a-(2-(dimethylamino)ethylcarbamoyl)-5a,5b,8,8,11a-pentamethyl-2,3,3a,4,5,5a,5b,6,7,7a,8,11,11a,11b,12,13,13a,13b-octadecahydro-1H-cyclopenta[a]chrysen-9-yl)benzoic acid], 0.00149 µM; with `C=C(CNCCN(C)C)[C@@H]1CC[C@]2(C(=O)NCCC(=O)O)CC[C@]3(C)[C@H](CC[C@@H]4[C@@]5(C)CC=C(c6ccc(C(=O)O)cc6)C(C)(C)[C@@H]5CC[C@]43C)[C@@H]12` [Example 9, 4-((1R,3aS,5aR,5bR,7aR,11aS,11bR,13aR,13bS)-3a-(2-carboxyethylcarbamoyl)-1-(3-(2-(dimethylamino)ethylamino)prop-1-en-2-yl)-5a,5b,8,8,11a-pentamethyl-2,3,3a,4,5,5a,5b,6,7,7a,8,11,11a,11b,12,13,13a,13b-octadecahydro-1H-cyclopenta[a]chrysen-9-yl)benzoic acid], 0.09 µM. The same measure for `C=C(CN(C)C(=O)CCC(=O)O)[C@@H]1CC[C@]2(C(=O)NCCC(=O)O)CC[C@]3(C)[C@H](CC[C@@H]4[C@@]5(C)CC=C(c6ccc(C(=O)O)cc6)C(C)(C)[C@@H]5CC[C@]43C)[C@@H]12` [Example 10, 4-((1R,3aS,5aR,5bR,7aR,11aS,11bR,13aR,13bS)-1-(3-(3-carboxy-N-methylpropanamido)prop-1-en-2-yl)-3a-(2-carboxyethylcarbamoyl)-5a,5b,8,8,11a-pentamethyl-2,3,3a,4,5,5a,5b,6,7,7a,8,11,11a,11b,12,13,13a,13b-octadecahydro-1H-cyclopenta[a]chrysen-9-yl)benzoic acid]: 2 µM; for `C=C(COCCN1CCOCC1)[C@@H]1CC[C@]2(C(=O)O)CC[C@]3(C)[C@H](CC[C@@H]4[C@@]5(C)CC=C(c6ccc(C(=O)O)cc6)C(C)(C)[C@@H]5CC[C@]43C)[C@@H]12` [Example 11, (1R,3aS,5aR,5bR,7aR,11aS,11bR,13aR,13bS)-9-(4-carboxyphenyl)-5a,5b,8,8,11a-pentamethyl-1-(3-(2-morpholinoethoxy)prop-1-en-2-yl)-2,3,3a,4,5,5a,5b,6,7,7a,8,11,11a,11b,12,13,13a,13b-octadecahydro-1H-cyclopenta[a]chrysene-3a-carboxylic acid]: 0.02 µM. As to `C=C(COCCN1CCOCC1)[C@@H]1CC[C@]2(C(=O)NCCC(=O)O)CC[C@]3(C)[C@H](CC[C@@H]4[C@@]5(C)CC=C(c6ccc(C(=O)O)cc6)C(C)(C)[C@@H]5CC[C@]43C)[C@@H]12` [Example 12, 4-((1R,3aS,5aR,5bR,7aR,11aS,11bR,13aR,13bS)-3a-(2-carboxyethylcarbamoyl)-5a,5b,8,8,11a-pentamethyl-1-(3-(2-morpholinoethoxy)prop-1-en-2-yl)-2,3,3a,4,5,5a,5b,6,7,7a,8,11,11a,11b,12,13,13a,13b-octadecahydro-1H-cyclopenta[a]chrysen-9-yl)benzoic acid], the EC50 is 0.14 µM. The same measure for `C=C(COCCN1CCOCC1)[C@@H]1CC[C@]2(C(=O)NCCNCCO)CC[C@]3(C)[C@H](CC[C@@H]4[C@@]5(C)CC=C(c6ccc(C(=O)O)cc6)C(C)(C)[C@@H]5CC[C@]43C)[C@@H]12` [Example 13, 4-((1R,3aS,5aR,5bR,7aR,11aS,11bR,13aR,13bS)-3a-(2-(2-hydroxyethylamino)ethylcarbamoyl)-5a,5b,8,8,11a-pentamethyl-1-(3-(2-morpholinoethoxy)prop-1-en-2-yl)-2,3,3a,4,5,5a,5b,6,7,7a,8,11,11a,11b,12,13,13a,13b-octadecahydro-1H-cyclopenta[a]chrysen-9-yl)benzoic acid]: 0.00197 µM. Take `C=C(COCCN1CCOCC1)[C@@H]1CC[C@]2(C(=O)NCCN(C)C)CC[C@]3(C)[C@H](CC[C@@H]4[C@@]5(C)CC=C(c6ccc(C(=O)O)cc6)C(C)(C)[C@@H]5CC[C@]43C)[C@@H]12` [Example 14, 4-((1R,3aS,5aR,5bR,7aR,11aS,11bR,13aR,13bS)-3a-(2-(dimethylamino)ethylcarbamoyl)-5a,5b,8,8,11a-pentamethyl-1-(3-(2-morpholinoethoxy)prop-1-en-2-yl)-2,3,3a,4,5,5a,5b,6,7,7a,8,11,11a,11b,12,13,13a,13b-octadecahydro-1H-cyclopenta[a]chrysen-9-yl)benzoic acid]: the EC50 was 0.00072 µM. With `C=C(COCCN1CCOCC1)[C@@H]1CC[C@]2(C(=O)NCCCN3CCCC3=O)CC[C@]3(C)[C@H](CC[C@@H]4[C@@]5(C)CC=C(c6ccc(C(=O)O)cc6)C(C)(C)[C@@H]5CC[C@]43C)[C@@H]12` [Example 15, 4-((1R,3aS,5aR,5bR,7aR,11aS,11bR,13aR,13bS)-5a,5b,8,8,11a-pentamethyl-1-(3-(2-morpholinoethoxy)prop-1-en-2-yl)-3a-(3-(2-oxopyrrolidin-1-yl)propylcarbamoyl)-2,3,3a,4,5,5a,5b,6,7,7a,8,11,11a,11b,12,13,13a,13b-octadecahydro-1H-cyclopenta[a]chrysen-9-yl)benzoic acid] the figure was 0.00183 µM. Consider `C=C(COCCN1CCOCC1)[C@@H]1CC[C@]2(C(=O)NCCCn3ccnc3)CC[C@]3(C)[C@H](CC[C@@H]4[C@@]5(C)CC=C(c6ccc(C(=O)O)cc6)C(C)(C)[C@@H]5CC[C@]43C)[C@@H]12` [Example 16, 4-((1R,3aS,5aR,5bR,7aR,11aS,11bR,13aR,13bS)-3a-(3-(1H-imidazol-1-yl)propylcarbamoyl)-5a,5b,8,8,11a-pentamethyl-1-(3-(2-morpholinoethoxy)prop-1-en-2-yl)-2,3,3a,4,5,5a,5b,6,7,7a,8,11,11a,11b,12,13,13a,13b-octadecahydro-1H-cyclopenta[a]chrysen-9-yl)benzoic acid], for which the EC50 amounted to 0.00248 µM. As to `C=C(COCCN1CCOCC1)[C@@H]1CC[C@]2(C(=O)NCCNCC(=O)O)CC[C@]3(C)[C@H](CC[C@@H]4[C@@]5(C)CC=C(c6ccc(C(=O)O)cc6)C(C)(C)[C@@H]5CC[C@]43C)[C@@H]12` [Example 17, 4-((1R,3aS,5aR,5bR,7aR,11aS,11bR,13aR,13bS)-3a-(2-(carboxymethylamino)ethylcarbamoyl)-5a,5b,8,8,11a-pentamethyl-1-(3-(2-morpholinoethoxy)prop-1-en-2-yl)-2,3,3a,4,5,5a,5b,6,7,7a,8,11,11a,11b,12,13,13a,13b-octadecahydro-1H-cyclopenta[a]chrysen-9-yl)benzoic acid], the EC50 came to 0.08 µM.
